# Like-named read-outs stand apart in the source and are kept apart here.
# Assays:
# USP7 [1] = molecular target: T1, USP7 (Homo sapiens, UniProt Q93009); assay: USP7 IC50 of HBX19818 analogs (Table 9); format: biochemical; details: read-out: USP7 IC50 +/− SEM
# Ba/F3-FLT3-ITD cells = assay: Immunoblot of FLT3 / Beclin-1 in Ba/F3-FLT3-ITD cells; format: cell-based, murine; details: for FLT3 protein levels: immunoblot, Ba/F3-FLT3-ITD cells
# From the text: (§1) The following antibodies were purchased from Cell Signaling Technology (Danvers, Mass.): total AKT (rabbit, #9272) and total p44/42 MAPK (Erk1/2) (3A7) (mouse, #9107) were used at 1:1000 dilution. Anti-GAPDH (D16H-11) XP (R) (rabbit mAb, #5174) was used at 1:1000 dilution. Beclin-1 (rabbit, #3738) was used at 1:1000. USP10 (D7A5) (rabbit, #8501) was used at 1:1000 dilution. P53 (rabbit, #9282) was used at 1:1000 dilution. β-tubulin (rabbit, #2146s) was used 1:1000.
# (§2) FLT3/Flk-2 (C-20) (sc-479) and Ub (P4D1) (mouse, sc-8017) were purchased from Santa Cruz Biotechnology, Inc. (Dallas, Tex.) and used at 1:1000 dilution for immunoblotting. Anti-pTyr (mouse, clone 4G10) was purchased from Upstate Biotechnology (Lake Placid, N.Y.) and was used at 1:1000 dilution. Anti-HAUSP/USP7 antibody (rabbit, ab4080) and anti-ubiquitin antibody (rabbit, ab7780) were purchased from Abcam (Cambridge, Mass.) and used at 1:1000 dilution.
# (§3) Protein lysate preparation, immunoblotting, and immunoprecipitation were carried out as previously described in Weisberg et al. (2002) Cancer Cell 1:433-443.
# K052 = assay: Anti-proliferation, 24 hr treatment (CellTiter-Glo); format: cell-based, human; details: read-out: Anti-proliferation IC50
# From the text: Nomo-1, P31-FUJ, and NB4 were obtained from Dr. Gary Gilliland. MV4, 11 cells were obtained from Dr. Anthony Letai. Hel, K562, THP, U937, TF-1 and K052 cells were purchased from the American Type Culture Collection (ATCC) (Manassas, Va., USA). […] Cell lines were submitted for cell line authentication and were authenticated within 6 months of manuscript preparation through cell line short tandem repeat (STR) profiling (DDC Medical, Fairfield, Ohio and Molecular Diagnostics Laboratory, Dana Farber Cancer Institute). […] PBMCs were generously provided by Dr. Steven Treon and Dr. Guang Yang.
# The CellTiter-Glo® assay (Promega, Madison, Wis.) was used for proliferation studies and carried out according to manufacturer instructions. Cell viability is reported as percentage of control (untreated) cells, and error bars represent the standard error of the mean for each data point.
# [2] = test system: mutant FLT3-expressing cells; assay: Dynamic BH3 profiling (mitochondrial priming); format: cell-based, human; details: cytochrome c release in response to Bim peptide, 14 h; compared to wt or null FLT3-expressing cells
# Protocol: To determine drug-induced changes in mitochondrial priming, dynamic BH3 profiling was performed as previously described in Montero et al. (2015) Cell 160:977-989 and Pan et al. (2014) Cancer Discov. 4:362-375. Briefly, 0.4×10^6 cells/well were exposed to drug treatment for 14 hours. At the end of incubation time, cells were washed in PBS, pelleted at 500×g for 5 min, and resuspended in MEB buffer. Fifteen μl of cell suspension was added to each well of 384 well plate containing 15 μl of MEB buffer containing 20 μg/mL digitonin and BH3 peptides at twice their final concentration, and the mixture was incubated for 60 min at 26° C. to allow mitochondrial depolarization. Peptide exposure was then terminated by adding 10 μl 4% formaldehyde in PBS for 15 min, followed by neutralization with N2 buffer (1.7M Tris, 1.25M glycine, pH 9.1) for 10 min. In order to determine cytochrome C levels, anti-cytochrome C clone 6H2.B4 conjugated to Alexa Fluor® 647 (BD Bioscience) was diluted 1:50 in 10× staining buffer (10% BSA, 2% Tween-20 and 0.02% sodium azide in PBS) and 10 μl of this antibody-containing buffer was added to each well for a final dilution of 1:400. Cells were stained overnight at 4° C. in dark and data were acquired on a BD LSRFortessa™ analyzer (BD Biosciences). Priming change (Δ) was calculated by comparing cytochrome C abundance in treated cells to that of DMSO-treated control cells.
# MOLM13 and MOLM14 cells = assay: p53 levels in AML cell lines (immunoblot); format: cell-based, human
# From the text: as §1, §3
# [3] = test system: FLT3-ITD-positive AML primagraft cells; assay: FLT3 immunoblot in ex vivo-treated AML primagraft cells; format: cell-based, human; details: 21 hours of treatment; concentration of 20
# Protocol: as §3
# Ba/F3-D835Y cells [4] = assay: Immunoblot of FLT3 in Ba/F3-D835Y cells; format: cell-based, murine
# From the text: as §2, §3
# USP7 [5] = molecular target: T1, USP7; assay: MALDI TOF DUB assay with diubiquitin substrate; format: biochemical; details: diubiquitin as substrate, same assay as USP10
# Protocol: Thirty-one human DUBs were freshly diluted in the reaction buffer (40 mM Tris-HCl, pH 7.6, 5 mM DTT, 0.005% BSA) at different concentrations (see Table 10). […] 0.48 μl of di-ubiquitin topoisomers were added to the reaction mixture to initiate the reaction. The reaction was sealed and incubated for 30 min at room temperature and stopped by adding TFA to a final concentration of 2% (v/v).
# Mass spectrometry data was acquired on an UltrafleXtreme MALDI-TOF mass spectrometer (Bruker Daltonics) with Compass 1.3 control and processing software. The sample carrier was taught before each analysis to optimize and centre laser shooting. […] Samples were analysed in automatic mode (AutoXecute, Bruker Daltonics). […] An amount of 3,500 shots were summed up in “random walk” and with “large” smartbeam laser focus. Spectra were automatically calibrated on the ^15N-Ub m/z and processed using smoothing (Savitzky-Golay algorithm) and baseline subtraction (‘TopHat’) for reproducible peak annotation on non-resolved isotope distributions: one cycle, 0.2 m/z for the width. For area calculation, the complete isotopic distribution was taken into account. An in-house made script was used to report—^15N and mono-ubiquitin areas; plotting of graphs, calculation of standard deviation and coefficient of variation (%) were processed in Microsoft Excel.
# USP10 = USP10 target engagement in cells, labeling with HA-Ub-VS; format: cell-based; details: lysates from live treated cells
# Protocol: Cells were harvested, washed with PBS, and lysed in 1% NP-40, 10% glycerol, 2% sodium orthovanadate, and HALT protease inhibitor cocktail (ThermoFisher). Lysate was diluted to 50 ug in 30 uL lysis buffer with 1% DTT and incubated on ice for 15 minutes. 0.25 ug HA-Ub-VS was added, and the sample was gently rocked at room temperature for 30 minutes, then denatured with LDS sample buffer.
# MOLM14 cells = assay: Immunoblot of FLT3, Beclin-1, AKT, ERK1/ERK2 in MOLM14 cells; format: cell-based, human
# From the text: as §1, §2, §3
# Ba/F3-D835Y cells [6] = test system: Ba/F3-D835Y cells
# [7] = 24 hr treatment, K052 (FLT3 wt or null)
# T1 sequence (Q93009 whole entry): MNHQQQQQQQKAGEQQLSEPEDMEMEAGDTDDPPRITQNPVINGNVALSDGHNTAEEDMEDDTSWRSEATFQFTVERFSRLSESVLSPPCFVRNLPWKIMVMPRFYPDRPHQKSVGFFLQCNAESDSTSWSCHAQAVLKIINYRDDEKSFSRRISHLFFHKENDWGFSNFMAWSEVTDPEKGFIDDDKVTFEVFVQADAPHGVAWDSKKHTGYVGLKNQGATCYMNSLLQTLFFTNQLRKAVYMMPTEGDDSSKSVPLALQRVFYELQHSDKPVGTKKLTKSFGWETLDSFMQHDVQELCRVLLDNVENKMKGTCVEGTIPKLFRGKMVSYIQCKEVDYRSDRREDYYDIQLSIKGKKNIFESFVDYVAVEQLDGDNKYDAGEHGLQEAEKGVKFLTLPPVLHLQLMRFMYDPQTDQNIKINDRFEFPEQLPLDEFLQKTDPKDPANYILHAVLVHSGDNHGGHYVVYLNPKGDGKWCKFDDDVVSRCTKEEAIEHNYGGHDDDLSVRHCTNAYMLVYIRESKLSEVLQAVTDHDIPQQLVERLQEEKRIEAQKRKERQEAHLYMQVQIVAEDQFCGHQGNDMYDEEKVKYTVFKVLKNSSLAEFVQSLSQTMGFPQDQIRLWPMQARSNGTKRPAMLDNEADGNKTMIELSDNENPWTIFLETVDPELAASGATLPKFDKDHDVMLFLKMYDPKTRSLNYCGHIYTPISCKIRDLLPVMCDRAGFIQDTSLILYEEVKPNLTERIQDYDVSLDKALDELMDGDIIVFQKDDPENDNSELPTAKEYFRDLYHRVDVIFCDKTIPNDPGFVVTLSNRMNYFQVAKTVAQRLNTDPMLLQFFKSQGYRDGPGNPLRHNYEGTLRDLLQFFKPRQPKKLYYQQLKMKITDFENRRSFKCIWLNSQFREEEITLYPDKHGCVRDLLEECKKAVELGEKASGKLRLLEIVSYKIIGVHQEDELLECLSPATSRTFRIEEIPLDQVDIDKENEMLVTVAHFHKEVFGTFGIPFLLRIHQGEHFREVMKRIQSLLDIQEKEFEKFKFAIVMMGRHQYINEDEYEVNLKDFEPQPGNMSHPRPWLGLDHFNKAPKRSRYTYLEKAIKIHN
Structure (SMILES),IC50 (USP7 [1]) [µM],FLT3 protein levels (Ba/F3-FLT3-ITD cells),IC50 (K052; [7]) [µM],Mitochondrial priming for apoptosis [2],p53 levels (MOLM13 and MOLM14 cells),FLT3 levels via immunoblotting [3],FLT3 protein levels (Ba/F3-D835Y cells [4]),IC50 (USP7 [5]) [µM],Inhibitor concentration blocking USP10 labeling by HA-Ub-VS (USP10),Protein levels of Beclin-1 and FLT3 (Ba/F3-FLT3-ITD cells; 20 μM),Protein levels of Beclin-1 and FLT3 (MOLM14 cells; 20 μM),Expression of AKT and ERK1/ERK2 downstream of FLT3 (MOLM14 cells; approximately 23 hours of treatment),"IC50 (K052; Homo sapiens, K052, 24 h) [µM]",Proliferation EC50 (Ba/F3-D835Y cells [6])
CCCN(CCC)CCCNC(=O)c1ccc2c(Cl)c3c(nc2c1)CCCC3 [C598-0466],3.6,induces FLT3 degradation at lower concentrations,11.6,–,–,–,–,–,–,–,–,–,–,–
CCN(CCCNC(=O)c1ccc2nc3c(c(Cl)c2c1)CCC3)Cc1ccccc1 [C673-0105],> 100,–,23.5,more strongly,–,–,–,–,–,–,–,–,–,–
O=C(NCCCN1CCN(Cc2ccccc2)CC1)c1ccc2nc3c(c(Cl)c2c1)CCCC3 [C598-0563],50,induce loss of FLT3 at similar concentrations,14.5,–,–,–,–,–,–,–,–,–,–,–
"CN(CCCNC(=O)c1ccc2nc3c(c(Cl)c2c1)CCCC3)Cc1ccccc1 [HBX19818, reference compound]",–,loss of FLT3 protein,–,increased priming,did not result in a decrease of p53 levels,no trace of FLT3,more modest loss of FLT3 protein,57,low micromolar range,strongly decreased,strongly decreased,unchanged,16.6,single digit micromolar range
